Data on 25 compounds can be found in patent US20200123115A1, “COMPOUNDS HAVING MULTIMODAL ACTIVITY AGAINST PAIN” (ESTEVE PHARMACEUTICALS, S.A., priority 2017, published 2020).

The target in experiment [1] is Human norepinephrine transporter (NET) (Homo sapiens, UniProt P23975). The experiment is described as follows: Binding assay to human norepinephrine transporter (NET), [3H]-Nisoxetin. The settings on record: human NET enriched membranes, 5 nM [3H]-Nisoxetin. On the procedure: Binding Assay to Human Norepinephrine Transporter (NET).
Chain of Human norepinephrine transporter (NET) (P23975 whole entry): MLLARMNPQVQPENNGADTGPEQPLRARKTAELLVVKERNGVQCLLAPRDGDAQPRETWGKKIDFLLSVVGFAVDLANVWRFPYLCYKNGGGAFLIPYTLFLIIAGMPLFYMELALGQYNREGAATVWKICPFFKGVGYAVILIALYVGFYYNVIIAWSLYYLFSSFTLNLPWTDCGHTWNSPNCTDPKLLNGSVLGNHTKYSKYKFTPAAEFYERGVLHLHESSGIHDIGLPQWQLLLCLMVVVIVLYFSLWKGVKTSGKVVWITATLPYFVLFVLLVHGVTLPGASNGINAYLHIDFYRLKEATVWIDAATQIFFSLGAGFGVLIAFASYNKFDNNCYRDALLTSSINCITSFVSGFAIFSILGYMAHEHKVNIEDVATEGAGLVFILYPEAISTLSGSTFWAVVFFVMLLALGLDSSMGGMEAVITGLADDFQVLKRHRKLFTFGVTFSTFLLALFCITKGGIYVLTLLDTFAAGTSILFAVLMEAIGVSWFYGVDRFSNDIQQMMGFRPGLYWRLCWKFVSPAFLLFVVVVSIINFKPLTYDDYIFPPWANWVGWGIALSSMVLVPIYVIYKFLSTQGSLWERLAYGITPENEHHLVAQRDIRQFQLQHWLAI
Human norepinephrine transporter (NET) enriched membranes (5 μg) were incubated with 5 nM of radiolabeled [3H]-Nisoxetin in assay buffer containing 50 mM Tris-HCl, 120 mM NaCl, 5 mM KCl, pH 7.4.
NSB (non specific binding) was measured by adding 1 μM. After 60 min incubation at 4° C., binding reaction was terminated by filtering through Multiscreen GF/C (Millipore) presoaked in 0.5% polyethyleneimine in Vacuum Manifold Station, followed by 3 washes with ice-cold filtration buffer containing 50 mM Tris-HCl, 0.9% NaCl, pH 7.4.
Filter plates were dried at 60° C. for 1 hour and 30 μL of scintillation cocktail were added to each well before radioactivity reading.
Readings were performed in a Trilux 1450 Microbeta radioactive counter (Perkin Elmer).

For experiment [2], the target named is Human α2δ-1 subunit of Cav2.2 calcium channel (Homo sapiens, UniProt P54289). Nature of the experiment: Human α2δ-1 subunit of Cav2.2 calcium channel assay, [3H]-Gabapentin binding. Conditions: human α2δ-1 enriched membranes, 15 nM [3H]-Gabapentin. On the procedure: Human α2δ-1 Subunit of Cav2.2 Calcium Channel Assay
Chain of Human α2δ-1 subunit of Cav2.2 calcium channel (P54289 25-1103): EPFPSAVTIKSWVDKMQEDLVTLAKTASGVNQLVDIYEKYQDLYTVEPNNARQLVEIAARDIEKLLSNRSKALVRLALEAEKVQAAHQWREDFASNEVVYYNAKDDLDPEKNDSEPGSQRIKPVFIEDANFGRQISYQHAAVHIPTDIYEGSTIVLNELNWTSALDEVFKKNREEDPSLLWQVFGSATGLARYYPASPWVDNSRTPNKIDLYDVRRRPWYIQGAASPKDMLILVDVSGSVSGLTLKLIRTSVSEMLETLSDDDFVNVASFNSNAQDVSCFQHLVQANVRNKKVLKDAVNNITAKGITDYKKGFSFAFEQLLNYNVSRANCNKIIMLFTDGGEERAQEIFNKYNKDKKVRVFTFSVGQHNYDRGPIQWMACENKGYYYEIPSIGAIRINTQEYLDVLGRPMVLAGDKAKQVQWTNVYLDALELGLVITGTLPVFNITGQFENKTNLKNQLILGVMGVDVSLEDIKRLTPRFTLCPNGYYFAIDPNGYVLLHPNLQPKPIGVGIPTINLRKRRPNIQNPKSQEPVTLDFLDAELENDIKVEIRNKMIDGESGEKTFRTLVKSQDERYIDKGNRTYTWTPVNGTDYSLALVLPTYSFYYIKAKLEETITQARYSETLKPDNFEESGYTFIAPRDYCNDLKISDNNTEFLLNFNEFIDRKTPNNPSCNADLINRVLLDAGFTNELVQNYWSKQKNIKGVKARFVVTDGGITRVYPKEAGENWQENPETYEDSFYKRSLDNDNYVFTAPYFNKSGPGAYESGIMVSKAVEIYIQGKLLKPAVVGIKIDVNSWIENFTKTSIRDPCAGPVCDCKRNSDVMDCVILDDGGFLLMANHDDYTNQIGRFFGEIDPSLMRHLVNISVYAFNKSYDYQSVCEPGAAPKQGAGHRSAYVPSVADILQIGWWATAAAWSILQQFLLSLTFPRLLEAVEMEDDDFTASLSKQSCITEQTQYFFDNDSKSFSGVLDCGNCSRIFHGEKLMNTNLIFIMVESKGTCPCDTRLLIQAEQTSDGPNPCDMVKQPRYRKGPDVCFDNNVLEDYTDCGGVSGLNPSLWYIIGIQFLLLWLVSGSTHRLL
Human α2δ-1 enriched membranes (2.5 μg) were incubated with 15 nM of radiolabeled [3H]-Gabapentin in assay buffer containing Hepes-KOH 10 mM, pH 7.4. NSB (non specific binding) was measured by adding 10 μM pregabalin. After 60 min incubation at 27° C., binding reaction was terminated by filtering through Multiscreen GF/C (Millipore) presoaked in 0.5% polyethyleneimine in Vacuum Manifold Station, followed by 3 washes with ice-cold filtration buffer containing 50 mM Tris-HCl, pH 7.4. Filter plates were dried at 60° C. for 1 hour and 30 μL of scintillation cocktail were added to each well before radioactivity reading. Readings were performed in a Trilux 1450 Microbeta radioactive counter (Perkin Elmer).

What is called Ki is a measure of affinity in units of concentration, obtained from inhibition or displacement.

As to `CNCCNc1nccc(-c2cccc(O[C@@H](CCNC)c3ccccc3)c2)n1` [Example 32, (S)—N1-methyl-N2-(4-(3-(3-(methylamino)-1-phenylpropoxy)phenyl)pyrimidin-2-yl)ethane-1,2-diamine], the Ki in experiment [1] was not below 1000 nM; in experiment [2], 500 to 5000 nM.

In the case of `CNCC[C@H](Oc1cccc(-c2ccnc(N3CCNCC3)n2)c1)c1ccccc1` [Example 28, (S)—N-Methyl-3-phenyl-3-(3-(2-(piperazin-1-yl)pyrimidin-4-yl)phenoxy)propan-1-amine], the Ki is not below 1000 nM in experiment [1] and 500 to 5000 nM in experiment [2].

As to `CNCCC(Oc1cccc(-c2cnc(OC)nc2)c1)c1cccs1` (centres unmarked) [Example 18, 3-(3-(2-methoxypyrimidin-5-yl)phenoxy)-N-methyl-3-(thiophen-2-yl)propan-1-amine], the Ki in experiment [1] was not below 1000 nM; in experiment [2], 500 to 5000 nM.

On to `CNCCC(Oc1cccc(-c2cnc(C)nc2)c1)c1cccs1` (centres unmarked) [Example 23, N-methyl-3-(3-(2-methylpyrimidin-5-yl)phenoxy)-3-(thiophen-2-yl)propan-1-amine], for which the Ki in experiment [1] is not below 1000 nM; in experiment [2] it was 500 to 5000 nM.

For `CNCC[C@H](Oc1cccc(-c2ccnc(NC)n2)c1)c1ccccc1` [Example 30, (S)—N-methyl-4-(3-(3-(methylamino)-1-phenylpropoxy)phenyl)pyrimidin-2-amine], the Ki is less than 100 nM in experiment [1] and not below 5000 nM in experiment [2].

On to `CNCC[C@@H](Oc1cccc(-c2ccnc(SC)n2)c1)c1ccccc1` [Example 8, (R)—N-methyl-3-(3-(2-(methylthio)pyrimidin-4-yl)phenoxy)-3-phenylpropan-1-amine], for which the results for the Ki in experiment [1] and in experiment [2] were less than 100 nM and 500 to 5000 nM, respectively.

As to `CNCC[C@H](Oc1cccc(-c2ccnc(N(C)C)n2)c1)c1ccccc1` [Example 35, (S)—N,N-dimethyl-4-(3-(3-(methylamino)-1-phenylpropoxy)phenyl)pyrimidin-2-amine], the Ki in experiment [1] is less than 100 nM; in experiment [2], not below 5000 nM.

As to `CNCCC(Oc1cccc(-c2ccncn2)c1)c1ccccc1` (centres unmarked) [Example 4, N-methyl-3-phenyl-3-(3-(pyrimidin-4-yl)phenoxy)propan-1-amine], the Ki in experiment [1] is 500 to 1000 nM; in experiment [2], 500 to 5000 nM.

In the case of `CNCC[C@H](Oc1cccc(-c2ccnc(C)n2)c1)c1ccccc1` [Example 6, (S)—N-methyl-3-(3-(2-methylpyrimidin-4-yl)phenoxy)-3-phenylpropan-1-amine], the Ki in experiment [1] was 100 to 500 nM; in experiment [2], 500 to 5000 nM.

`CNCC[C@H](Oc1cccc(-c2ccnc(N[C@@H]3CCNC3)n2)c1)c1ccccc1` [Example 36, 4-(3-((S)-3-(methylamino)-1-phenylpropoxy)phenyl)-N—((R)-pyrrolidin-3-yl)pyrimidin-2-amine]: the Ki in experiment [1] was in the range of 500 to 1000 nM; in experiment [2], 500 to 5000 nM.

In the case of `CNCC[C@@H](Oc1cccc(-c2ccnc(N[C@H]3CCNC3)n2)c1)c1ccccc1` [Example 34, 4-(3-((R)-3-(methylamino)-1-phenylpropoxy)phenyl)-N—((S)-pyrrolidin-3-yl)pyrimidin-2-amine], the Ki in experiment [1] is 500 to 1000 nM; in experiment [2], 500 to 5000 nM.

Take `CCNc1nccc(-c2cccc(O[C@@H](CCNC)c3ccccc3)c2)n1` [Example 29, (S)—N-ethyl-4-(3-(3-(methylamino)-1-phenylpropoxy)phenyl)pyrimidin-2-amine]: the Ki in experiment [1] lay in the range of 100 to 500 nM; in experiment [2], 500 to 5000 nM.

`CNCCC(Oc1cccc(-c2ccncc2C)c1)c1cccs1` (centres unmarked) [Example 24, N-methyl-3-(3-(3-methylpyridin-4-yl)phenoxy)-3-(thiophen-2-yl)propan-1-amine]: the Ki in experiment [1] lay within 500 to 1000 nM; in experiment [2] it was 500 to 5000 nM.

On to `CNCC[C@H](Oc1cccc(-c2ccnc(N)n2)c1)c1ccccc1` [Example 10, (S)-4-(3-(3-(methylamino)-1-phenylpropoxy)phenyl)pyrimidin-2-amine], for which the Ki in experiment [1] fell in the range of 100 to 500 nM; in experiment [2], 500 to 5000 nM.

`CNCCC(Oc1cccc(-c2cc(C)nc(C)c2)c1)c1cccs1` (centres unmarked) [Example 26, 3-(3-(2,6-dimethylpyridin-4-yl)phenoxy)-N-methyl-3-(thiophen-2-yl)propan-1-amine]: the values for the inhibitory constant (Ki) in experiment [1] and in experiment [2] were 100 to 500 nM and 500 to 5000 nM, respectively.

`CNCCC(Oc1cccc(-c2ccnc(C)c2)c1)c1cccs1` (centres unmarked) [Example 19, N-methyl-3-(3-(2-methylpyridin-4-yl)phenoxy)-3-(thiophen-2-yl)propan-1-amine]: the Ki in experiment [1] was 100 to 500 nM; in experiment [2] it was less than 500 nM.

For the compound `CNCCC(Oc1cccc(-c2ccnc(C(F)(F)F)c2)c1)c1cccs1` (centres unmarked) [Example 22, N-methyl-3-(thiophen-2-yl)-3-(3-(2-(trifluoromethyl)pyridin-4-yl)phenoxy)propan-1-amine], the Ki was in the range of 100 to 500 nM in experiment [1] and 500 to 5000 nM in experiment [2].

On to `CNCC[C@H](Oc1cccc(-c2ccnc(N3CCN(C)CC3)n2)c1)c1ccccc1` [Example 31, (S)—N-methyl-3-(3-(2-(4-methylpiperazin-1-yl)pyrimidin-4-yl)phenoxy)-3-phenylpropan-1-amine], for which the Ki in experiment [1] was not below 1000 nM; in experiment [2], 500 to 5000 nM.

For the compound `CNCCC(Oc1cccc(-c2ccnc(OC)n2)c1)c1ccccc1` (centres unmarked) [Example 1, 3-(3-(2-Methoxypyrimidin-4-yl)phenoxy)-N-methyl-3-phenylpropan-1-amine], the Ki in experiment [1] was less than 100 nM; in experiment [2] it was 500 to 5000 nM.

Turning to `CNCCC(Oc1cccc(-c2ccc(C)nn2)c1)c1ccccc1` (centres unmarked) [Example 3, N-methyl-3-(3-(6-methylpyridazin-3-yl)phenoxy)-3-phenylpropan-1-amine], the inhibition constant (Ki) in experiment [1] is 500 to 1000 nM; in experiment [2], not below 5000 nM.

For `CNCCC(Oc1cccc(-c2ccncc2)c1)c1cccs1` (centres unmarked) [Example 27, N-methyl-3-(3-(pyridin-4-yl)phenoxy)-3-(thiophen-2-yl)propan-1-amine], the values for the Ki in experiment [1] and in experiment [2] were 100 to 500 nM and 500 to 5000 nM, respectively.

For the compound `CNCC[C@@H](Oc1cccc(-c2ccnc(C)n2)c1)c1ccccc1` [Example 7, (R)—N-methyl-3-(3-(2-methylpyrimidin-4-yl)phenoxy)-3-phenylpropan-1-amine], the Ki in experiment [1] lay within 500 to 1000 nM; in experiment [2], 500 to 5000 nM.

For the compound `CNCC[C@@H](Oc1cccc(-c2ccnc(N[C@@H]3CCNC3)n2)c1)c1ccccc1` [Example 33, 4-(3-((R)-3-(methylamino)-1-phenylpropoxy)phenyl)-N—((R)-pyrrolidin-3-yl)pyrimidin-2-amine], the Ki was not below 1000 nM in experiment [1] and 500 to 5000 nM in experiment [2].

With `CNCC[C@H](Oc1cccc(-c2ccnc(SC)n2)c1)c1ccccc1` [Example 5, (S)—N-methyl-3-(3-(2-(methylthio)pyrimidin-4-yl)phenoxy)-3-phenylpropan-1-amine], the results for the Ki in experiment [1] and in experiment [2] were less than 100 nM and 500 to 5000 nM, respectively.

For the compound `CNCCC(Oc1cccc(-c2ccnc(C)n2)c1)c1ccccc1` (centres unmarked) [Example 2, N-methyl-3-(3-(2-methylpyrimidin-4-yl)phenoxy)-3-phenylpropan-1-amine], the Ki in experiment [1] lay within 100 to 500 nM; in experiment [2], 500 to 5000 nM.
